From patent US5981576A, “(Methylsulfonyl)phenyl-2-(5H)-furanones as COX-2 inhibitors” (Merck Frosst Canada, Inc., priority 1998, dated 1999)

Molecular target: T1, COX-2 (Homo sapiens, UniProt P35354)
T1 sequence (P35354 18-604): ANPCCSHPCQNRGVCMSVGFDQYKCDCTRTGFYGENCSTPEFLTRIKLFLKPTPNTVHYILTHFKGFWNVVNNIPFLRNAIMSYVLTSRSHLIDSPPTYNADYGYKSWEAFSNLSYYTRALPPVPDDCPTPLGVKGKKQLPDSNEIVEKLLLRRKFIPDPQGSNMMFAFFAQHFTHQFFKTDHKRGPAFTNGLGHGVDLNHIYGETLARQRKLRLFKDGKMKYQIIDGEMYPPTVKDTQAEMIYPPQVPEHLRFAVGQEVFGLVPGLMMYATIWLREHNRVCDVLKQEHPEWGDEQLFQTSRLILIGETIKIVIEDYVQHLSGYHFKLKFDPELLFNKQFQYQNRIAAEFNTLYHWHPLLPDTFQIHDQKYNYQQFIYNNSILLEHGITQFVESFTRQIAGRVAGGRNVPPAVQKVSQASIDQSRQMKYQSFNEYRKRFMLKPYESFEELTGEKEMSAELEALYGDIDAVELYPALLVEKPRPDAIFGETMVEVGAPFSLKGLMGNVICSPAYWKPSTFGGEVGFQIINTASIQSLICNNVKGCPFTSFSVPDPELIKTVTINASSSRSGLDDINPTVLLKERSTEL
Assay: cell-based
Conditions: Table IV; CHO[hCOX-2] cells, 10 μM AA
Procedure: Chinese hamster ovary (CHO) cell lines which have been stably transfected with an eukaryotic expression vector pCDNAIII containing either the human COX-1 or COX-2 cDNA's are used for the assay. These cell lines are referred to as CHO [hCOX-1] and CHO [hCOX-2], respectively. […] Cells (0.3×10^6 cells in 200 μl) are preincubated with 3 μl of the test drug or DMSO vehicle for 15 min at 37° C. […] Cells are then challenged in the presence or absence of drug with the AA/HBSS solution to yield a final concentration of 0.5 μM AA in the CHO[hCOX-1] assay and a final concentration of 10 μM AA in the CHO[hCOX-2] assay. […] The samples are centrifuged at 300×g at 4° C. for 10 min, and an aliquot of the clarified supernatant is appropriately diluted for the determination of PGE2 levels using an enzyme-linked immunoassay for PGE2 (Correlate PGE2 enzyme immunoassay kit, Assay Designs, Inc.). Cyclooxygenase activity in the absence of test compounds is determined as the difference in PGE2 levels of cells challenged with arachidonic acid versus the PGE2 levels in cells mock-challenged with ethanol vehicle. Inhibition of PGE2 synthesis by test compounds is calculated as a percentage of the activity in the presence of drug versus the activity in the positive control samples.

SMILES	IC50
CC1(C)OC(=O)C(Oc2cccc(C(F)(F)F)c2)=C1c1ccc(S(C)(=O)=O)cc1 [Example 110]	> 5 µM
CC1(C)OC(=O)C(Oc2ccc(C(C)(C)O)cc2)=C1c1ccc(S(C)(=O)=O)cc1 [Example 191]	0.98 µM
Cc1ncc(OC2=C(c3ccc(S(C)(=O)=O)cc3)C(C)(C)OC2=O)cc1Br [Example 137]	0.55 µM

Molecular target: T1, COX-2
Assay: cell-based
Conditions: Table IV; human whole blood, LPS-induced PGE2; read-out: COX-2 (IC50, μM) HWB
Source text: (§1) As well, platelets in whole blood contain a large amount of the COX-1 enzyme. Immediately following blood clotting, platelets are activated through a thrombin-mediated mechanism. […] Therefore, the degree of selectivity by the test compound can be determined by measuring the levels of PGE2 after LPS induction (COX-2) and TxB2 following blood clotting (COX-1) in the same assay.
A. COX-2 (LPS-induced PGF, production)
Fresh blood is collected in heparinized tubes by venipuncture from both male and female volunteers. The subjects have no apparent inflammatory conditions and have not taken any NSAIDs for at least 7 days prior to blood collection. Plasma is immediately obtained from a 2 mL blood aliquot to use as blank (basal levels of PGE2).

SMILES	IC50
CC1(COC2=C(c3ccc(S(C)(=O)=O)cc3)C(C)(C)OC2=O)CC1 [Example 173]	< 0.41 µM
C[C@]1(CC(F)(F)F)OC(=O)C(Oc2ccc(Cl)cn2)=C1c1ccc(S(C)(=O)=O)cc1 [Example 130, (5R)-3-(5-Chloro-2-pyridyloxy)-5-methyl-4-(4-methylsulfonyl)phenyl-5-(2,2,2-trifluoroethyl)-5H-furan-2-one]	< 0.41 µM
CC1(C)OC(=O)C(Oc2ccc(C(C)(C)O)cc2)=C1c1ccc(S(C)(=O)=O)cc1 [Example 191]	4.3 µM
Cc1ncc(OC2=C(c3ccc(S(C)(=O)=O)cc3)C(C)(C)OC2=O)cc1Br [Example 137]	5.2 µM

Molecular target: T2, COX-1 (Homo sapiens, UniProt P23219)
T2 sequence (P23219 24-599): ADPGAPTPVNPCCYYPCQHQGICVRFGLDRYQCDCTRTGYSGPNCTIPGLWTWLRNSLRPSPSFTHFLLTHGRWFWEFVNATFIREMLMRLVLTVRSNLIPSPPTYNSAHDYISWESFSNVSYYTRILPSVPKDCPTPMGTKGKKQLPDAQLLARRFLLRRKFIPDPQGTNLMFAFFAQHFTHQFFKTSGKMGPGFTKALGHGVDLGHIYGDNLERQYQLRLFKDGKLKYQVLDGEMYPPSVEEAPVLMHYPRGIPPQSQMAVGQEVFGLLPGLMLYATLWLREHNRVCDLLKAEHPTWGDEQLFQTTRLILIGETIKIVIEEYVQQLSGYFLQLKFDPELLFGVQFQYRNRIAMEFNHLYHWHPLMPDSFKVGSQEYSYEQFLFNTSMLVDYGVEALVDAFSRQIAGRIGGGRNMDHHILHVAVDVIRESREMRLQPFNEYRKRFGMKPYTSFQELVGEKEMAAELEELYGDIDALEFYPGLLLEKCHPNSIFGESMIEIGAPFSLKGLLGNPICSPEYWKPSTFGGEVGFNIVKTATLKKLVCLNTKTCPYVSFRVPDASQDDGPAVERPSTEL
Assay: biochemical
Format: biochemical
Conditions: Table III; U937
Procedure: Compounds are tested as inhibitors of cyclooxygenase activity in whole cell cyclooxygenase assays. Both of these assays measure prostaglandin E2 synthesis in response to arachidonic acid, using a radioimmunoassay. Cells used for these assays are human osteosarcoma 143 cells (which specifically express COX-2) and human U-937 cells (which specifically express COX-1). In these assays, 100% activity is defined as the difference between prostaglandin E2 synthesis in the absence and presence of arachidonate.
U 937 cells are pelleted by centrifugation at 500×g for 5 min and washed once with phosphate-buffered saline and repelleted. Cells are resuspended in homogenization buffer consisting of 0.1 M Tris-HCl, pH 7.4, 10 mM EDTA, 2 μg/ml leupeptin, 2 μg/ml soybean trypsin inhibitor, 2 μg/ml aprotinin and 1 mM phenyl methyl sulfonyl fluoride. The cell suspension is sonicated 4 times for 10 sec and is centrifuged at 10,000×g for 10 min at 4° C. The supernatant is centrifuged at 100,000×g for 1 hr at 4 ° C. The 100,000×g microsomal pellet is resuspended in 0.1 M Tris-HCl, pH 7.4, 10 mM EDTA to approximately 7 mg protein/ml and stored at -80° C.
Microsomal preparations are thawed immediately prior to use, subjected to a brief sonication, and then diluted to a protein concentration of 125 μg/ml in 0.1 M Tris-HCl buffer, pH 7.4 containing 10 mM EDTA, 0.5 mM phenol, 1 mM reduced glutathione and 1 μM hematin. Assays are performed in duplicate in a final volume of 250 μl. Initially, 5 μd of DMSO vehicle or drug in DMSO are added to 20 μl of 0.1 M Tris-HCl buffer, pH 7.4 containing 10 mM EDTA in wells of a 96-deepwell polypropylene titre plate. 200 μl of the microsomal preparation are then added and pre-incubated for 15 min at room temperature before addition of 25 μl of […] in 0.1 M Tris-HCl and 10 mM EDTA, pH 7.4. […] Cyclooxygenase activity is defined as the difference between PGE2 levels in samples incubated in the presence of arachidonic acid and ethanol vehicle.

SMILES	IC50
CC1(C)OC(=O)C(Sc2ccc(F)cc2)=C1c1ccc(S(C)(=O)=O)cc1 [Example 9, 3-(4-Fluorophenylthio)-5,5-dimethyl-4-(4-(methylsulfonyl)phenyl)-5H-furan-2-one]	> 10 µM
Cc1cccc(OC2=C(c3ccc(S(C)(=O)=O)cc3)C(C)(C)OC2=O)n1 [Example 27, 3-(6-Methyl-2-pyridyloxy)-5,5-dimethyl-4-(4-(methylsulfonyl)phenyl)-5H-furan-2-one]	> 10 µM
CS(=O)(=O)c1ccc(C2=C(Sc3ccccc3)C(=O)OC23CCCC3)cc1 [Example 21, 4-(4-(Methylsulfonyl)phenyl)-3-phenylthio-1-oxaspiro[4.4]non-3-en-2-one]	> 10 µM
CC1(C)OC(=O)C(Oc2cccc(F)c2)=C1c1ccc(S(C)(=O)=O)cc1 [Example 2, 3-(3-Fluorophenoxy)-5,5-dimethyl-4-(4-(methylsulfonyl)phenyl)-5H-furan-2-one]	3 µM
CC1(C)OC(=O)C(C(=O)c2ccc(F)c(F)c2)=C1c1ccc(S(C)(=O)=O)cc1 [Example 18, 3-(3,4-Difluorobenzoyl)-5,5-dimethyl-4-(4-(methylsulfonyl)phenyl)-5H-furan-2-one]	> 30 µM
CC1(C)OC(=O)C(Sc2cc(F)cc(F)c2)=C1c1ccc(S(C)(=O)=O)cc1 [Example 10, 3-(3,5-Difluorophenylthio)-5,5-dimethyl-4-(4-(methylsulfonyl)phenyl)-5H-furan-2-one]	> 10 µM
CC1(C)OC(=O)C(C(O)c2ccc(F)c(F)c2)=C1c1ccc(S(C)(=O)=O)cc1 (stereo not drawn) [Example 17, 3-(3,4-Difluorophenylhydroxymethyl)-5,5-dimethyl-4-(4-(methylsulfonyl)phenyl)-5H-furan-2-one]	> 10 µM
CC1(C)OC(=O)C(Oc2ccc(Cl)cc2)=C1c1ccc(S(C)(=O)=O)cc1 [Example 6, 3-(4-Chlorophenoxy)-5,5-dimethyl-4-(4-(methylsulfonyl)phenyl)-5H-furan-2-one]	0.4 µM
CN(C1=C(c2ccc(S(C)(=O)=O)cc2)C(C)(C)OC1=O)c1ccccc1 [Example 13, 3-(N-Methyl-N-phenylamino)-5,5-dimethyl-4-(4-(methylsulfonyl)phenyl)-5H-furan-2-one]	> 10 µM
CC1(C)OC(=O)C(Oc2ccc(F)cc2)=C1c1ccc(S(C)(=O)=O)cc1 [Example 8, 3-(4-Fluorophenoxy)-5,5-dimethyl-4-(4-(methylsulfonyl)phenyl)-5H-furan-2-one]	0.3 µM
CS(=O)(=O)c1ccc(C2=C(Oc3ccccc3)C(=O)OC23CCCC3)cc1 [Example 20, 4-(4-(Methylsulfonyl)phenyl)-3-phenoxy-1-oxaspiro[4.4]non-3-en-2-one]	0.3 µM
CC1(C)OC(=O)C(Oc2ccccn2)=C1c1ccc(S(C)(=O)=O)cc1 [Example 26, 3-(2-pyridyloxy)-5,5-dimethyl-4-(4-(methylsulfonyl)phenyl)-5H-furan-2-one]	~10 µM
CC1(C)OC(=O)C(Cc2ccc(F)cc2)=C1c1ccc(S(C)(=O)=O)cc1 [Example 23, 3-(4-Fluorobenzyl)-5,5-dimethyl-4-(4-(methylsulfonyl)phenyl)-5H-furan-2-one]	> 30 µM
CC1(C)OC(=O)C(Oc2ccc(Cl)c(Cl)c2)=C1c1ccc(S(C)(=O)=O)cc1 [Example 7, 3-(3,4-Dichlorophenoxy)-5,5-dimethyl-4-(4-(methylsulfonyl)phenyl)-5H-furan-2-one]	1 µM
CC1(C)OC(=O)C(Nc2ccccc2)=C1c1ccc(S(C)(=O)=O)cc1 [Example 12, 3-(N-Phenylamino)-5,5-dimethyl-4-(4-(methylsulfonyl)phenyl)-5H-furan-2-one]	> 10 µM
CC1(C)OC(=O)C(Cc2ccccc2)=C1c1ccc(S(C)(=O)=O)cc1 [Example 16, 3-Benzyl-5,5-dimethyl-4-(4-(methylsulfonyl)phenyl)-5H-furan-2-one]	> 10 µM
CC1(C)OC(=O)C(Oc2ccc(F)cc2F)=C1c1ccc(S(C)(=O)=O)cc1 [Example 5, 3-(2,4-Difluorophenoxy)-5,5-dimethyl-4-(4-(methylsulfonyl)phenyl)-5H-furan-2-one]	0.3 µM
NS(=O)(=O)c1ccc(C2=C(Sc3ccccc3)C(=O)OC23CCCC3)cc1 [Example 22, 4-(2-Oxo-3-phenylthio-1-oxa-spiro[4,4]non-3-en-4-yl)benzene-sulfonamide]	> 1 µM
CC1(C)OC(=O)C(C(=O)c2ccccc2)=C1c1ccc(S(C)(=O)=O)cc1 [Example 19b, 3-Benzoyl-5,5-dimethyl-4-(4-(methylsulfonyl)phenyl)-5H-furan-2-one]	> 10 µM

Molecular target: T2, COX-1
Assay: Human whole blood assay, COX-1 (clotting-induced TxB2 production)
Format: cell-based
Conditions: Table III, read-out: COX-1 (IC50) HWB
Source text: as §1
B. COX-1 (Clotting-induced TxB2 production)
Fresh blood is collected into vacutainers containing no anticoagulants. Aliquots of 500 μL are immediately transferred to siliconized microcentrifuge tubes preloaded with 2 μL of either DMSO or a test compound at final concentrations varying from 10 nM to 30 μM. The tubes are vortexed and incubated at 37° C. for 1 hour to allow blood to clot. At the end of incubation, serum is obtained by centrifugation (12,000×g for 5 min.). A 100 μL aliquot of serum is mixed with 400 μL of methanol for protein precipitation.

SMILES	IC50
CC1(C)OC(=O)C(Oc2cc(F)cc(F)c2)=C1c1ccc(S(C)(=O)=O)cc1 [Example 3, 3-(3,5-Difluorophenoxy)-5,5-dimethyl-4-(4-(methylsulfonyl)phenyl)-5H-furan-2-one]	6.1 µM
